biological target: HPK1 (Homo sapiens (Human), UniProt Q92918); test: HPK1 Lantha binding assay ("Lanth"); conditions: binding assays; Morrison Ki fit
Experimental: Example B2: HPK1 Lantha Binding Assay (“Lanth”)
Procedure: I. Compound Dilution:
The compounds to be tested were diluted by preparing 12.5 uL/well of 5 mM compound (100×) in columns 2 and 13 and 10 ul/well of DMSO in columns 3-12, 14-23, and wells A1-H1 and I24-P24 of the compound plate using a Bravo liquid handling platform. For the reference compound, the top concentration was 1 mM. To the plate was added 10 ul 2 mM staurosporine in wells J1-P1 and A24-H24. A 11 point 5-fold compound serial dilution was performed using the Bravo liquid handling platform. From the plate were transferred 2.5 ul of the solutions from column 2 and column 13 to the 10 ul of DMSO in columns 3 and 14 & so on. The compound plate was centrifuged at 2500 rpm for 1 min. From the compound plate was transferred 80 nl of the compounds into an assay plate using the Echo liquid handler system. One compound plate makes two assay plates. Each assay plate is sealed and stored in an N2 cabinet.
The following assay concentrations and times were used: 2 nM HPK1, 2 nM Eu-Anti-GST Ab, and 15 nM Tracer222, with 60 min incubation time.
III. HPK Lantha Binding Assay:
For the binding assay, 4 ul 2×HPK1 and Eu-anti-GST antibody were added to each well of the assay plate using a Multidrop reagent dispenser. The solutions were incubated in a 23 C incubator for 1 h. To each well of the assay plate was added 4 ul 2× Tracer-222 using a Multidrop reagent dispenser. The solutions were again incubated in a 23 C incubator for 1 h. The results of the assay were read using an Envision plate reader with the following parameters: TR_FRET, 340 ex/615 and 665em; 100 usec Delay; and 200 usec integration.
Compound Ki was analyzed using Morrison ki fit model in XL-fit • a. fit=(1−((((E+x)+(Ki*(1+(S/Kd))))−(((((E+x)+(Ki*(1+(S/Kd))))^2)−((4*E)*x))^0.5))/(2*E))) • res=(y−fit) • b. Parameters: • E=enzyme concentration • S=Tracer222 concentration, Kd=Tracer222 Kd • All measurements reported using the same units (uM)
Exemplary compounds were tested in the binding assays.

Sequence of HPK1 (Q92918 1-346 limits assumed): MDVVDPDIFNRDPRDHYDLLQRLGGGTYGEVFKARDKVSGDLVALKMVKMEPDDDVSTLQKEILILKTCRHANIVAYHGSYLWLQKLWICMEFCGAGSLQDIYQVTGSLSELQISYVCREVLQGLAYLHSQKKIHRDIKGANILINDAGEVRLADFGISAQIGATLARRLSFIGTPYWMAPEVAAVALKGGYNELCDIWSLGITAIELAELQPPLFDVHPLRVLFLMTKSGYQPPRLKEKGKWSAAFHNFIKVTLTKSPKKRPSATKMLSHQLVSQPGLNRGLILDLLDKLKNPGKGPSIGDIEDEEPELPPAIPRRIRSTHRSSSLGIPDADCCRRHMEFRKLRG

Going from `CN(C)C(=O)c1c(N)ccc(-c2cnc3c(c2Cl)[C@]2(CC[C@H](Oc4ccccn4)C2)CN3)c1F` (relative stereo) [Compound 173a, 6-Amino-3-((1R,3S)-4′-chloro-3-(pyridin-2-yloxy)-1′,2′-dihydrospiro[cyclopentane-1,3′-pyrrolo[2,3-b]pyridin]-5′-yl)-2-fluoro-N,N-dimethylbenzamide] to `CN(C)C(=O)c1c(N)ccc(-c2cnc3c(c2Cl)[C@]2(CC[C@H](n4ccccc4=O)C2)CN3)c1F` (relative stereo) [Compound 196a, 6-Amino-3-((1R,3S)-4′-chloro-3-(2-oxopyridin-1(2B)-yl)-1′,2′-dihydrospiro[cyclopentane-1,3′-pyrrolo[2,3-b]pyridin]-5′-yl)-2-fluoro-N,N-dimethylbenzamide], the Ki rises from 6.75 nM to 97.6 nM (14-fold).

`Cc1cn([C@H]2CC[C@@]3(CNc4ncc(-c5ccc(N)c(C(=O)N(C)C)c5F)c(Cl)c43)C2)nc1N` (relative stereo) [Compound 177a, 6-Amino-3-((1R,3S)-3-(3-amino-4-methyl-1H-pyrazol-1-yl)-4′-chloro-1′,2′-dihydrospiro[cyclopentane-1,3′-pyrrolo[2,3-b]pyridin]-5′-yl)-2-fluoro-N,N-dimethylbenzamide] and `Cc1cnn([C@H]2CC[C@@]3(CNc4ncc(-c5ccc(N)c(C(=O)N(C)C)c5F)c(Cl)c43)C2)c1N` (relative stereo) [Compound 178a, 6-Amino-3-((1R,3S)-3-(5-amino-4-methyl-1H-pyrazol-1-yl)-4′-chloro-1′,2′-dihydrospiro[cyclopentane-1,3′-pyrrolo[2,3-b]pyridin]-5′-yl)-2-fluoro-N,N-dimethylbenzamide] are within 1.5-fold of each other in Ki: 14.7 nM for the first, 15.9 nM for the second.

Compared with `CN(C)C(=O)c1c(N)ccc(-c2cnc3c(c2Cl)[C@]2(CC[C@H](n4cc(C(N)=O)cn4)C2)CN3)c1F` (relative stereo) [Compound 180a, 1-((1R,3S)-5′-(4-Amino-3-(dimethylcarbamoyl)-2-fluorophenyl)-4′-chloro-1′,2′-dihydrospiro[cyclopentane-1,3′-pyrrolo[2,3-b]pyridin]-3-yl)-1H-pyrazole-4-carboxamide], `CN(C)C(=O)c1c(N)ccc(-c2cnc3c(c2Cl)[C@]2(CC[C@@H](n4ccnn4)C2)CN3)c1F` (single isomer, unassigned) [Compound 90c] is 1.7-fold higher in Ki: 46.1 nM for the first, 80.4 nM for the second. The first binds more tightly here.

Compared with `CN(C)C(=O)c1c(N)ccc(-c2cnc3c(c2Cl)[C@@]2(CN3)C[C@@H]2c2ccncc2)c1F` (relative stereo) [Compound 198a, 6-Amino-3-((1R,2R)-4′-chloro-2-(pyridin-4-yl)-1′,2′-dihydrospiro[cyclopropane-1,3′-pyrrolo[2,3-b]pyridin]-5′-yl)-2-fluoro-N,N-dimethylbenzamide], `CN(C)C(=O)c1c(N)ccc(-c2cnc3c(c2Cl)[C@@]2(CN3)C[C@@H]2c2ccccc2)c1F` (relative stereo) [Compound 201a, 6-Amino-3-((1R,2R)-4′-chloro-2-phenyl-1′,2′-dihydrospiro[cyclopropane-1,3′-pyrrolo[2,3-b]pyridin]-5′-yl)-2-fluoro-N,N-dimethylbenzamide] is 4.2-fold lower in Ki: 15.2 nM for the first, 3.58 nM for the second. The second binds more tightly here.

Compared with `CN(C)C(=O)c1c(N)ccc(-c2cnc3c(c2Cl)[C@]2(CC[C@H](CO)C2)CN3)c1F` (relative stereo) [Compound 259a, 6-Amino-3-((1R,3S)-4′-chloro-3-(hydroxymethyl)-1′,2′-dihydrospiro[cyclopentane-1,3′-pyrrolo[2,3-b]pyridin]-5′-yl)-2-fluoro-N,N-dimethylbenzamide], `CN(C)C(=O)c1c(N)ccc(-c2cnc3c(c2Cl)[C@@]2(CN3)C[C@@H]2CO)c1F` (single isomer, unassigned) [Compound 39c] is 1.9-fold higher in Ki: 6.1 nM for the first, 11.6 nM for the second. The first binds more tightly here.

`CN(CCN1CCOCC1)C(=O)c1c(N)ccc(-c2cnc3c(c2Cl)[C@]2(CC[C@](C)(C#N)C2)CN3)c1F` (relative stereo) [Compound 272a, 6-Amino-3-((1R,3S)-4′-chloro-3-cyano-3-methyl-1′,2′-dihydrospiro[cyclopentane-1,3′-pyrrolo[2,3-b]pyridin]-5′-yl)-2-fluoro-N-methyl-N-(2-morpholinoethyl)benzamide] and `CN(C)CCCN(C)C(=O)c1c(N)ccc(-c2cnc3c(c2Cl)[C@]2(CC[C@](C)(C#N)C2)CN3)c1F` (relative stereo) [Compound 275a, 6-Amino-3-((1R,3S)-4′-chloro-3-cyano-3-methyl-1′,2′-dihydrospiro[cyclopentane-1,3′-pyrrolo[2,3-b]pyridin]-5′-yl)-N-(3-(dimethylamino)propyl)-2-fluoro-N-methylbenzamide] are within 1.5-fold of each other in Ki: 30.8 nM for the first, 41 nM for the second.

`CN1CCN(c2cccc3c(-c4cnc5c(c4Cl)[C@]4(CC[C@H](C(N)=O)C4)CN5)c[nH]c23)C(=O)C1` (relative stereo) [Compound 304a, (1R,3S)-4′-Chloro-5′-(7-(4-methyl-2-oxopiperazin-1-yl)-1H-indol-3-yl)-1′,2′-dihydrospiro[cyclopentane-1,3′-pyrrolo[2,3-b]pyridine]-3-carboxamide] and `NC(=O)[C@H]1CC[C@@]2(CNc3ncc(-c4c[nH]c5c(N6CCNCC6=O)cccc45)c(Cl)c32)C1` (relative stereo) [Compound 305a, (1RS,3SR)-4′-Chloro-5′-(7-(2-oxopiperazin-1-yl)-1H-indol-3-yl)-1′,2′-dihydrospiro[cyclopentane-1,3′-pyrrolo[2,3-b]pyrdine]-3-carboxamide] are within 1.5-fold of each other in Ki: 43.9 nM for the first, 38.6 nM for the second.

Going from `C[C@@H]1C[C@@]12CNc1ncc(-c3c[nH]c4c(N5CCNCC5=O)cccc34)cc12` (relative stereo) [Compound 306a, 1-(3-((1R,2R)-2-methyl-1′,2′-dihydrospiro[cyclopropane-1,3′-pyrrolo[2,3-b]pyridin]-5′-yl)-1H-indol-7-yl)piperazin-2-one] to `C[C@]1(C(N)=O)CC[C@@]2(CNc3ncc(-c4c[nH]c5ccc(C#N)cc45)c(Cl)c32)C1` (relative stereo) [Compound 337a, (1R,3S)-4′-Chloro-5′-(5-cyano-1H-indol-3-yl)-3-methyl-1′,2′-dihydrospiro[cyclopentane-1,3′-pyrrolo[2,3-b]pyridine]-3-carboxamide], the Ki falls from 43.2 nM to 28.4 nM (1.5-fold).

First: C[C@]1(C#N)CC[C@@]2(CNc3ncc(-c4c[nH]c5ccc(C#N)cc45)c(Cl)c32)C1 (relative stereo) [Compound 330a, (1R,3S)-4′-Chloro-5′-(5-cyano-1H-indol-3-yl)-3-methyl-1′,2′-dihydrospiro[cyclopentane-1,3′-pyrrolo[2,3-b]pyridine]-3-carbonitrile]
Second: Cn1cccc(-c2cccc(-c3cnc4c(c3Cl)C3(CC[C@@H](O)C3)CN4)c2)c1=O (single isomer, unassigned) [Compound 68a]
The Ki of the first is 4.1-fold higher: 73.9 nM for the first, 17.9 nM for the second.

`CN(C)C(=O)c1c(N)ccc(-c2cnc3c(c2Cl)[C@]2(CN3)C[C@H]2CO)c1F` (single isomer, unassigned) [Compound 39d] and `CN(C)C(=O)c1c(N)ccc(-c2cnc3c(c2Cl)[C@]2(CC[C@H](c4ncn[nH]4)C2)CN3)c1F` (single isomer, unassigned) [Compound 99a] are within 1.5-fold of each other in Ki: 18.7 nM for the first, 14.5 nM for the second.

Going from `Nc1cc(-c2cnc3c(c2Cl)[C@]2(CC[C@H](O)C2)CN3)cc(-c2ncccc2CO)c1` (single isomer, unassigned) [Compound 61a] to `Nc1cc(-c2cnc3c(c2Cl)[C@@]2(CC[C@@H](O)C2)CN3)cc(-c2ncccc2CO)c1` (single isomer, unassigned) [Compound 61b], the Ki falls from 39.1 nM to 12.1 nM (3.2-fold).

Molecule `Cn1cccc(-c2cccc(-c3cnc4c(c3Cl)C3(CC[C@@H](O)C3)CN4)c2)c1=O` (single isomer, unassigned) [Compound 68b] has a Ki of 7.7 nM.

Reference: patent US12208088B2 (Genentech, Inc., priority 2018, dated 2025)
